Data reported in publication PMC6037779, “Repurposing drugs to target the malaria parasite unfolding protein response” (Scientific Reports, 2018).
Read-outs that look alike come from different tables or passages of the source.

How the values were obtained:
[1] = target: T1, PfGRP78-NBD wt (Plasmodium falciparum, UniProt Q05866); test: biochemical; format: binding
T1 construct: His-tag (pET28-MHL, TEV site) (N, cleaved yes); made in house; host or cells: E. coli BL21(DE3)
Experimental: (§1) To quantify the binding affinities of PfGRP78-NBD for the selected compounds, dissociation constants (Kd) were determined by surface plasmon resonance (SPR). […] Purified PfGRP78-FL, PfGRP78-NBD wild-type and mutant, and human GRP78-NBD were immobilized on a CM5 sensorchip using NHS/EDC coupling following the manufacturer protocol to a level of <10,000 RUs, a reference surfaces without immobilized proteins served as a control for nonspecific binding and refractive index changes. […] The running buffer was 10 mM HEPES, pH 7.4, 150 mM NaCl, 0.005% P20, 1% DMSO and 2 mM MgCl2. Buffer only injections were used as blanks. The Biacore responses recorded during the 30 seconds of the injection were used to estimate the association constant (kon) and the 300 seconds after the injection were used to estimate the dissociation constant (koff). All dissociation and kinetic constants were estimated using double subtracted sensorgrams[40] using BiaEvaluation Software (GE Healthcare). All the reported parasite dissociation constants (Kd) were estimated with affinity analysis, and all the reported human Kds were calculated from kinetic constants.

[2] = target: T2, huGRP78-NBD (Homo sapiens, UniProt P11021); test: SPR (Biacore) binding to human GRP78-NBD
T2 construct: PfGRP78-NBD wild type and mutant, and human GRP78-NBD were buffered in 25 mM hepes pH 7.5
Experimental: as §1

[3] = target: T3, PfGRP78-NBD (Plasmodium falciparum, UniProt Q05866); test: DSF thermal shift, PfGRP78-NBD; format: binding; details: compound 0.5 mM; shifts above or below 1 °C significant
T3 construct: His-tag (pET28-MHL, TEV site) (N, cleaved yes); made in house; host or cells: E. coli BL21(DE3)
Experimental: The Plasmodium and human GRP78 NBD differences were further characterized by measuring their interaction with ATP, ADP, and several compounds referenced in the literature as GRP78 inhibitors (Fig. 3a). Initially, their binding was determined using a DSF (Differential Scanning Fluorimetry) assay. In this assay, an interaction between the chaperone and a compound was measured as a change in the protein’s melting temperature (Tm), by subtracting the Tm of the protein by itself to the melting value of the protein in the presence of the compound. Differences above or below 1 °C between the melting temperatures (ΔTm) were considered indicative of a protein-compound interaction. As expected, the Plasmodium GRP78 chaperone interacted with both ATP and ADP. Four of the six compounds tested had significant effects on protein thermal stability (Fig. 3b).
DSF screening was carried out using a CFX96 Touch Real-Time PCR Detection System (BioRad, California). The PfGRP78-FL, PfGRP78-NBD wild type and mutant, and human GRP78-NBD were buffered in 25 mM hepes pH 7.5, 250 mM NaCl and assayed in a 96-well format. […]. The concentration was optimized for each protein to avoid saturation of the fluorescence detector. The GRP78 inhibitors were used at a final concentration of 0.5 mM. SYPRO Orange (Life Technologies, USA) was added as a fluorescence probe in a dilution of 1:1000. The experiments were conducted between 18 °C to 90 °C at a heating rate of 1 °C per minute. The recorded fluorescence reads were fitted to the Boltzmann sigmoid function using DMAN software. The inflection point of each fitted curve is defined as the melting temperature (Tm). The observed temperature shift, ΔTm, was recorded as the difference between Tm of the protein with ligand minus Tm of the protein without ligand. Thermal shifts above or below 1 °C were considered significant.

[4] = target: T4, PfGRP78-NBD mut (Y39F) (Plasmodium falciparum, UniProt Q05866, Y39F); test: SPR (Biacore) binding to PfGRP78-NBD Y39F mutant; details: ± standard error, 25 °C, read-out: affinity constant (Kd) determined by SPR, PfGRP78-NBD mut
T4 construct: His-tag (pET28-MHL, TEV site) (N, cleaved yes); made in house; host or cells: E. coli BL21(DE3)
Experimental: To quantify the binding affinities of PfGRP78-NBD for the selected compounds, dissociation constants (Kd) were determined by surface plasmon resonance (SPR). […] Purified PfGRP78-FL, PfGRP78-NBD wild-type and mutant, and human GRP78-NBD were immobilized on a CM5 sensorchip using NHS/EDC coupling following the manufacturer protocol to a level of <10,000 RUs, a reference surfaces without immobilized proteins served as a control for nonspecific binding and refractive index changes. Seven different concentrations of the ligands between 0.4 nM to 1 mM, were injected in triplicate over the sensor chip at 30 µL/min in random order. The running buffer was 10 mM HEPES, pH 7.4, 150 mM NaCl, 0.005% P20, 1% DMSO and 2 mM MgCl2. Buffer only injections were used as blanks. The Biacore responses recorded during the 30 seconds of the injection were used to estimate the association constant (kon) and the 300 seconds after the injection were used to estimate the dissociation constant (koff). All dissociation and kinetic constants were estimated using double subtracted sensorgrams[40] using BiaEvaluation Software (GE Healthcare). All the reported parasite dissociation constants (Kd) were estimated with affinity analysis, and all the reported human Kds were calculated from kinetic constants.

[5] = system: Plasmodium falciparum W2; test: In vitro growth inhibition assay (SYBR Green I), strain W2; format: cell-based; details: read-out: EC50, growth inhibition, P. falciparum W2
Experimental: (§2) A major goal of our study was to evaluate the drug target potential of P. falciparum GRP78, thus we evaluated the effect of the chaperone inhibition on the malaria parasite. Our approach took advantage of several GRP78 inhibitors (Fig. 3a) previously characterized against human cancer cell lines, which were commercially available[20],[24]–[27]. These compounds were tested against two different parasite strains with opposite sensitivity towards the antimalarial drug chloroquine, 3D7 (sensitive) and W2 (resistant). […] A synchronized P. falciparum culture, with over 80% ring forms, was used in the growth inhibition assay. Each strain was assayed at 0.5% parasitaemia and 1.5% hematocrit. A 190 µL aliquot of parasite culture was dispensed per well to microplates that were pre-dispensed with the compounds at various dilutions. […] Dilutions of GRP78 inhibitors and DHA were prepared in water with a final concentration of DMSO below 0.05% (v/v). […] After incubation, the plates were subject to a freeze-thaw cycle (−80 °C) and the parasite growth was quantified by the SYBR Green I method as previously described. Briefly, 100 µl of homogenized parasite culture was transferred into 96-well black plates. 100 µl of SYBR Green lysis buffer (2x SYBR Green I, 100 mM Tris-HCl pH 7.5, 10 mM EDTA, 0.016% Saponin and 1.6% Triton X-100) were added to each well. The plates were incubated at room temperature in darkness for 1 hour.
(§3) Growth inhibition experiments were conducted at least three times per compound. […] The statistical analysis was performed with the software Prism 7 (GraphPad Software, San Diego, CA).

[6] = system: Plasmodium falciparum 3D7; test: In vitro growth inhibition assay (SYBR Green I), strain 3D7; format: cell-based; details: read-out: EC50, growth inhibition, P. falciparum 3D7
Experimental: as §2, §3

[7] = target: T5, PfGRP78-FL (Plasmodium falciparum, UniProt Q05866, DEL449-452/N453V/P455G/Q454G/T226A); test: DSF thermal shift, PfGRP78 full-length; format: binding; details: read-out: ΔTm (DSF), PfGRP78-FL
T5 construct: His-tag (TEV site) (N, cleaved yes); made in house; host or cells: E. coli BL21(DE3); gene synthesized by Life Technologies
Experimental: (§4) Initially, their binding was determined using a DSF (Differential Scanning Fluorimetry) assay. In this assay, an interaction between the chaperone and a compound was measured as a change in the protein’s melting temperature (Tm), by subtracting the Tm of the protein by itself to the melting value of the protein in the presence of the compound. Differences above or below 1 °C between the melting temperatures (ΔTm) were considered indicative of a protein-compound interaction.
(§5) DSF screening was carried out using a CFX96 Touch Real-Time PCR Detection System (BioRad, California). The PfGRP78-FL, PfGRP78-NBD wild type and mutant, and human GRP78-NBD were buffered in 25 mM hepes pH 7.5, 250 mM NaCl and assayed in a 96-well format. The final concentration of the protein sample was optimized between 0.05 and 0.2 mg/ml for each protein. The concentration was optimized for each protein to avoid saturation of the fluorescence detector. The GRP78 inhibitors were used at a final concentration of 0.5 mM. SYPRO Orange (Life Technologies, USA) was added as a fluorescence probe in a dilution of 1:1000.

[8] = target: T2, huGRP78-NBD; test: DSF thermal shift, human GRP78-NBD; format: binding; details: compound 0.5 mM
Experimental: as §4, §5

[9] = system: HCT-116; test: Growth inhibition of human cell line; format: cell-based
Experimental: as §3

[10] = ± standard error, affinity analysis, 25 °C
[11] = ± standard error, calculated from kinetic constants, 25 °C
[12] = Plasmodium falciparum, W2, 72 h
[13] = Plasmodium falciparum, 3D7, 72 h

T2 sequence (P11021 26-407 limits assumed): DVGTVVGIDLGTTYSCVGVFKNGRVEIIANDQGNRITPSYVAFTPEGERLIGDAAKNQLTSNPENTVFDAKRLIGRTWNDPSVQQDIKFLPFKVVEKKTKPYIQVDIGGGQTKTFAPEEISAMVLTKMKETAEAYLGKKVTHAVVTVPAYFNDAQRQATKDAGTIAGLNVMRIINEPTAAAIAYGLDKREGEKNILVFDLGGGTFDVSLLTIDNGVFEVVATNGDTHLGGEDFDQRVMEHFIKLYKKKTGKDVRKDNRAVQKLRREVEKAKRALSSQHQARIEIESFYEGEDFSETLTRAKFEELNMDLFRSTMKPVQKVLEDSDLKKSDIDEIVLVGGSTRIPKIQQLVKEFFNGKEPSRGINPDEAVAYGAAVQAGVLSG

Structure (SMILES) | affinity constant (Kd) determined by SPR, PfGRP78-NBD wt [1, 10] | affinity constant (Kd) determined by SPR, huGRP78-NBD [2, 11] | DSF effect on thermal stability of PfGRP78-NBD [3] | EC50 [5, 12] | EC50 [6, 13] | further results
CCN(CC)c1ncnc2c1ncn2[C@H]1O[C@@H](COP(=O)(O)OP(=O)(O)C(Br)(Br)P(=O)(O)O)[C@H](O)[C@@H]1O [ARL-67156] | N.B. | N.B. | non-binders |  |  | 
Nc1ncnc2c1ncn2[C@@H]1O[C@H](COP(=O)(O)OP(=O)(O)OP(=O)(O)O)[C@@H](O)[C@H]1O [ATP] |  |  | interacted |  |  | fold decrease in affinity of malaria chaperone compared to the human counterpart ([1]; SPR Kd, PfGRP78-NBD vs huGRP78-NBD): 23 fold; Kd ([1]; ± standard error, affinity analysis, 25 °C, read-out: affinity constant (Kd) determined by SPR, PfGRP78-NBD wt): 333000 ± 74000 nM; Kd ([2]; ± standard error, calculated from kinetic constants, 25 °C, read-out: affinity constant (Kd) determined by SPR, huGRP78-NBD): 14000 ± 7000 nM; Kd [4]: 312000 ± 15000 nM
CCN(CC)CCCC(C)Nc1ccnc2cc(Cl)ccc12 (centres unmarked) [CQ, chloroquine] |  |  |  | 230 ± 30 nM | 50 ± 11 nM | 
C[C@H]1[C@@H](O)O[C@@H]2O[C@@]3(C)CC[C@H]4[C@H](C)CC[C@@H]1[C@@]24OO3 [DHA] |  |  |  |  |  | EC50 ([5]; chloroquine-resistant strain, 72 hours, average of three ± SD): 0.1 ± 0.02 nM; EC50 ([6]; chloroquine-sensitive strain, 72 hours, average of three ± SD): 0.4 ± 0.07 nM
CN(NC(=O)CC(=O)NN(C)C(=S)c1ccccc1)C(=S)c1ccccc1 [Elesclomol] | N.B. | N.B. | non-binders |  |  | EC50 ([5]; Plasmodium falciparum, W2, chloroquine-resistant strain, 72 hours, average of three ± SD): 60 ± 10 nM; EC50 ([6]; Plasmodium falciparum, 3D7, chloroquine-sensitive strain, 72 hours, average of three ± SD): 50 ± 17 nM
C=Cc1cc(OC)c2c(c1)c(=O)oc1c2cc(OC)c2c(O)ccc(C3OC(C(C)O)C(O)C3O)c21 (centres unmarked) [Gilvocarcin V] | N.B. | N.B. | increased the thermal stability | 80 ± 40 nM | 20 ± 4 nM | affinity constant (Kd) determined by SPR, PfGRP78-NBD wt ([1]; ± standard error, affinity analysis, 25 °C, listed as Gilvocarcin A): too weak to accurately determine its dissociation constant; affinity constant (Kd) determined by SPR, huGRP78-NBD ([2]; ± standard error, calculated from kinetic constants, 25 °C, listed as Gilvocarcin A): too weak to accurately determine its dissociation constant
CCn1c(=O)/c(=C2\Sc3ccccc3N2C)s/c1=C\c1cccc[n+]1CC [MKT-077] |  |  | significant thermal destabilization | 70 ± 30 nM | 70 ± 20 nM | Kd [1]: 16400 ± 1700 nM; Kd [2]: 16000 ± 170 nM; ΔTm at 500 µM [7]: 0.6 °C; DSF effect on thermal stability of human GRP78-NBD [8]: destabilized; times more selective towards P. falciparum ([9]; HCT-116 vs P. falciparum EC50, Results text b30): 14 times; EC50 ([9]; Homo sapiens, HCT-116, read-out: EC50, growth inhibition, HCT-116): 980 ± 230 nM
N#Cc1ccc(COCC2OC(n3c(NCc4ccc(Cl)c(Cl)c4)nc4c(N)ncnc43)C(O)C2O)cc1 (centres unmarked) [VER-155008] |  |  | increased the thermal stability | 39500 nM | 82100 ± 49700 nM | Kd [1]: 164000 ± 13600 nM; EC50 ([9]; HCT-116, human cell line, average of three ± SD, read-out: EC50, growth inhibition, HCT-116): 15710 ± 70 nM
